Laboratory results reported in patent US20240041042A1, “1-(PYRIDYL)-5-AZINYLPYRAZOLE DERIVATIVES, AND THEIR USE FOR CONTROL OF UNDESIRED PLANT GROWTH” (Bayer Aktiengesellschaft, priority 2020, published 2024).
Where two headings read alike, the source gives them in different places.

What was measured:
Type in all cases: in vivo
[1] = test system: Alopecurus myosuroides (ALOMY); experiment: Pre-emergence herbicidal action against ALOMY; conditions: scored visually after about 3 weeks, 100% = plants have died
Summary of the method: (§1)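 Dosages of 320 g/ha or less; pre-emergence; WP or EC in aqueous spray, 0.5% additive, 600 l/ha; greenhouse; visual % effect after ~3 wk relative to control pots.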

[2] = test system: Amaranthus retroflexus (AMARE); experiment: Pre-emergence herbicidal action against AMARE; conditions: visual scoring after about 3 weeks vs untreated controls
Summary of the method: as §1

[3] = test system: Avena fatua (AVEFA); experiment: Pre-emergence herbicidal action against AVEFA; conditions: 320 g/ha, visual scoring after about 3 weeks vs untreated controls
Summary of the method: as §1

[4] = test system: Echinochloa crus-galli (ECHCG); experiment: Pre-emergence herbicidal action against ECHCG
Summary of the method: as §1

[5] = test system: Lolium rigidum (LOLRI); experiment: Pre-emergence herbicidal action against LOLRI
Summary of the method: as §1

[6] = test system: Matricaria inodora (MATIN); experiment: Pre-emergence herbicidal action against MATIN; conditions: dosage 320 g/ha
Summary of the method: as §1

[7] = test system: Pharbitis purpurea (PHBPU); experiment: Pre-emergence herbicidal action against PHBPU
Summary of the method: as §1

[8] = test system: Polygonum convolvulus (POLCO); experiment: Pre-emergence herbicidal action against POLCO
Summary of the method: as §1

[9] = test system: Setaria viridis (SETVI); experiment: Pre-emergence herbicidal action against SETVI; conditions: dosage 320 g/ha
Summary of the method: as §1

[10] = test system: Verconica persica (VERPE); experiment: Pre-emergence herbicidal action against VERPE; conditions: dosage 320 g/ha
Summary of the method: as §1

[11] = test system: Viola tricolor (VIOTR); experiment: Pre-emergence herbicidal action against VIOTR
Summary of the method: as §1

[12] = test system: Alopecurus myosuroides (ALOMY); experiment: Post-emergence herbicidal action against ALOMY; conditions: visual rating about 3 weeks after treatment vs untreated controls (100% = plants have died, 0% = like control plants)
Summary of the method: (§2)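 Values are percent visual activity (0% like control, 100% plants dead) after about 3 weeks in the greenhouse. Treatment: post-emergence spray at one-leaf stage, 600 l/ha spray volume, 0.5% additive, doses 320 g/ha or lower.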

[13] = test system: Amaranthus retroflexus (AMARE); experiment: Post-emergence herbicidal action against AMARE
Summary of the method: as §2

[14] = test system: Avena fatua (AVEFA); experiment: Post-emergence herbicidal action against AVEFA; conditions: visual rating about 3 weeks after treatment
Summary of the method: as §2

[15] = test system: Echinochloa crus-galli (ECHCG); experiment: Post-emergence herbicidal action against ECHCG
Summary of the method: as §2

[16] = test system: Lolium rigidum (LOLRI); experiment: Post-emergence herbicidal action against LOLRI
Summary of the method: as §2

[17] = test system: Matricaria inodora (MATIN); experiment: Post-emergence herbicidal action against MATIN
Summary of the method: as §2

[18] = test system: Pharbitis purpurea (PHBPU); experiment: Post-emergence herbicidal action against PHBPU; conditions: dosage 320 g/ha
Summary of the method: as §2

[19] = test system: Polygonum convolvulus (POLCO); experiment: Post-emergence herbicidal action against POLCO
Summary of the method: as §2

[20] = test system: Setaria viridis (SETVI); experiment: Post-emergence herbicidal action against SETVI
Summary of the method: as §2

[21] = test system: Verconica persica (VERPE); experiment: Post-emergence herbicidal action against VERPE
Summary of the method: as §2

[22] = test system: Viola tricolor (VIOTR); experiment: Post-emergence herbicidal action against VIOTR
Summary of the method: as §2

[23] = test system: Oryza sativa (ORYSA); conditions: crop plant compatibility
Summary of the method: (§3)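 Foliar application at the one-leaf stage: WP/EC formulation, 0.5% additive, 600 l/ha water. Greenhouse-grown in sandy loam. Endpoint is visual % injury relative to untreated controls at about 3 weeks.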

[24] = test system: Zea mays (ZEAMX)
Summary of the method: as §3

[25] = test system: Abutilon theophrasti (ABUTH); experiment: Post-emergence herbicidal action against ABUTH; conditions: 80 g/ha, visual rating about 3 weeks after treatment vs untreated controls (100% = plants have died, 0% = like control plants)
Summary of the method: as §2

[26] = 80 g/ha, visual rating about 3 weeks after treatment vs untreated controls (100% = plants have died, 0% = like control plants)

Row | SMILES | Pre-emergence action against ALOMY ([1]; 320 g/ha) | Pre-emergence action against AMARE in % ([2]; 80 g/ha) | Pre-emergence action against AMARE in % ([2]; 320 g/ha) | Pre-emergence action against AVEFA in % [3] | Pre-emergence action against ECHCG in % ([4]; dosage 320 g/ha) | Pre-emergence action against LOLRI in % ([5]; dosage 80 g/ha) | Pre-emergence action against LOLRI in % ([5]; dosage 320 g/ha) | Pre-emergence action against MATIN in % [6] | Pre-emergence action against PHBPU in % ([7]; dosage 320 g/ha) | Pre-emergence action against POLCO in % ([8]; dosage 80 g/ha) | Pre-emergence action against POLCO in % ([8]; dosage 320 g/ha) | Pre-emergence action against SETVI in % [9] | Pre-emergence action against VERPE in % [10] | Pre-emergence action against VIOTR in % ([11]; 320 g/ha, Viola tricolor) | Pre-emergence action against VIOTR in % ([11]; dosage 80 g/ha) | Post-emergence action against ALOMY in % ([12]; 80 g/ha) | Post-emergence action against AMARE in % [13, 26] | Post-emergence action against AVEFA in % ([14]; 80 g/ha) | Post-emergence action against LOLRI in % ([16]; dosage 80 g/ha) | Post-emergence action against SETVI in % ([20]; dosage 80 g/ha) | further results
1 | CCOC(=O)COc1nn(-c2ncccc2C)c(-c2ccc(F)nc2)c1Br [Example I-321] | 100% | 100% | 100% | 90% | 100% | 100% | 100% | 100% | 90% | 90% | 100% | 100% | 100% | 100% | 90% | 90% | 80% | 90% | 100% | 90% | Pre-emergence action against ECHCG in % ([4]; dosage 80 g/ha): 100%; Pre-emergence action against PHBPU in % ([7]; dosage 80 g/ha): 80%; Post-emergence action against ALOMY in % ([12]; 320 g/ha): 100%; Post-emergence action against AMARE in % ([13]; 320 g/ha, visual rating about 3 weeks after treatment): 80%; Post-emergence action against AVEFA in % ([14]; 320 g/ha): 90%; Post-emergence action against ECHCG in % ([15]; dosage 80 g/ha): 90%; Post-emergence action against ECHCG in % ([15]; dosage 320 g/ha): 90%; Post-emergence action against LOLRI in % ([16]; dosage 320 g/ha): 100%; Post-emergence action against MATIN in % ([17]; dosage 320 g/ha): 80%; Post-emergence action against PHBPU in % [18]: 90%; Post-emergence action against POLCO in % ([19]; dosage 80 g/ha): 80%; Post-emergence action against POLCO in % ([19]; dosage 320 g/ha): 90%; Post-emergence action against SETVI in % ([20]; dosage 320 g/ha): 90%; Post-emergence action against VERPE in % ([21]; 320 g/ha, VERPE): 90%; Post-emergence action against VIOTR in % ([22]; 80 g/ha): 80%; Post-emergence action against VIOTR in % ([22]; 320 g/ha): 80%; Post-emergence action against ORYSA in % ([23]; 80 g/ha, effect in comparison to untreated controls): 0%; Post-emergence action against ZEAMX in % ([24]; crop plant compatibility, 80 g/ha, effect vs untreated controls): 0%
2 | CC(C)=NOC(=O)[C@@H](C)Oc1nn(-c2ncccc2F)c(-c2ccc(F)nc2)c1Br [Example I-374] | 100% | 100% | 100% | 100% | 100% | 80% | 100% | 90% | 90% | 80% | 90% | 100% | 100% | 100% | 90% | 100% | 80% | 90% | 90% | 90% | Pre-emergence action against ALOMY ([1]; 80 g/ha): 90%; Post-emergence action against ABUTH in % [25]: 80%; Post-emergence action against MATIN in % ([17]; dosage 80 g/ha): 80%; Post-emergence action against VERPE in % ([21]; dosage 80 g/ha): 80%; Post-emergence action against ORYSA in % ([23]; 20 g/ha, effect vs untreated controls): 10%; Post-emergence action against ZEAMX in % (crop plant compatibility) ([24]; 20 g/ha, ZEAMX, effect in comparison to untreated controls): 10%
